Measurements: patent US6673745B2, “Herbicidal 3,5-difluoropyridines” (BASF Aktiengesellschaft, priority 1997, dated 2004)

Columns and labels:
Type in all cases: in vivo
[1] = test system: Galium aparine (GALAP); assay: pre-emergence herbicidal test; conditions: second assessment 21 days after treatment
Protocol: (§1) To evaluate their herbicidal activity, compounds according to the invention are tested using a representative range of plants:
(§2) The pre-emergence tests involve spraying a liquid formulation of the compound onto the soil in which the seeds of the plant species mentioned above has recently been sown.
(§3) The soil used in the tests is a prepared horticultural loam. The formulations used in the tests are prepared from solutions of the test compounds in acetone containing 0.4% by weight of an alkylphenol/ethylene oxide condensate available under the trade mark TRITON X-155. These acetone solutions are diluted with water and the resulting formulations applied at dosage levels corresponding to 12.5 g, 25 g, 100 g or 400 g of active material per hectare in a volume equivalent to 900 liters per hectare. In these tests untreated sown soil are used as controls.
(§4) From 2 to 4 weeks after treatment, the tests are terminated and each pot is examined and rated according to the rating system set forth below: […]

[2] = test system: Hordeum vulgare (HORVW); assay: pre-emergence herbicidal test
Protocol: as §1, §2, §3, §4

[3] = test system: Stellaria media (STEME); assay: pre-emergence herbicidal test; conditions: second assessment 21 days after treatment
Protocol: as §1, §2, §3, §4

[4] = test system: Veronica persica (VERPE); assay: pre-emergence herbicidal test; conditions: second assessment 21 days after treatment
Protocol: as §1, §2, §3, §4

[5] = test system: Oryza sativa (ORYSA); assay: pre-emergence herbicidal test
Protocol: as §1, §2, §3, §4

[6] = test system: rice, maize and wheat; assay: pre-emergence test, crop tolerance and selectivity; conditions: dose of 25 g/ha
Protocol: as §1, §2, §3
(§5) From 2 to 4 weeks after treatment, the tests are terminated and each pot is examined and rated according to the rating system set forth below:
(§6) The compounds of the invention have shown to clearly improve selectivity in important crops (maize, soybeans, wheat, barley) when compared to the corresponding compounds of the state of the art having a central 4-methylpyrid-2,6-diyl moiety instead of the 3,5-difluoro-4-methylpyrid-2,6-diyl group according to the invention.

[7] = test system: weeds; assay: pre-emergence test, overall weed control; conditions: dose of 25 g/ha
Protocol: as §1, §2, §3, §5, §6

[8] = test system: Zea mays (ZEAMX); assay: pre-emergence herbicidal test
Protocol: (§7) To evaluate their herbicidal activity, compounds according to the invention are tested using a representative range of plants: […] The pre-emergence tests involve spraying a liquid formulation of the compound onto the soil in which the seeds of the plant species mentioned above has recently been sown. The soil used in the tests is a prepared horticultural loam. […] In these tests untreated sown soil are used as controls.

[9] = test system: Ipomoea hederacea (IPOHE); assay: pre-emergence herbicidal test; conditions: second assessment 21 days after treatment
Protocol: as §7

[10] = test system: Alopecurus myosuroides (ALOMY); assay: pre-emergence herbicidal test; conditions: second assessment 21 days after treatment
Protocol: as §7

[11] = test system: Abutilon theophrasti (ABUTH); assay: pre-emergence herbicidal test; conditions: second assessment 21 days after treatment
Protocol: as §7

[12] = test system: Setaria viridis (SETVI); assay: pre-emergence herbicidal test; conditions: second assessment 21 days after treatment
Protocol: as §7

[13] = test system: Matricaria inodora (MATIN); assay: pre-emergence herbicidal test; conditions: second assessment 21 days after treatment
Protocol: as §7

[14] = test system: Glycine max (GLXMA); assay: pre-emergence herbicidal test
Protocol: as §7

[15] = test system: Triticum aestivum (TRZAW); assay: pre-emergence herbicidal test
Protocol: as §7

[16] = 0.0125 kg/ha, first assessment 10 days after treatment
[17] = 0.0125 kg/ha, second assessment 21 days after treatment
[18] = 0.025 kg/ha, first assessment 10 days after treatment
[19] = 0.025 kg/ha, second assessment 21 days after treatment
[20] = 0.100 kg/ha, first assessment 10 days after treatment
[21] = 0.100 kg/ha, second assessment 21 days after treatment
[22] = 0.400 kg/ha, first assessment 10 days after treatment
[23] = 0.400 kg/ha, second assessment 21 days after treatment

Cc1c(F)c(Oc2cc(C(F)(F)F)nn2C)nc(-c2ccc(C(F)(F)F)cc2)c1F [Example 1, 3,5-Difluoro4-methyl-2-(1-methyl-3-trifluoromethylpyrazol-5-yloxy)-6-(4-trifluoromethylphenyl)pyridine]
GALAP rating ([1]; 0.0125 kg/ha): 3 (3 - Moderate effect) | GALAP rating ([1]; 0.025 kg/ha): 5 (5 - Definite injury) | GALAP rating ([1]; 0.100 kg/ha): 7 (7 - Good herbicidal effect) | GALAP rating ([1]; 0.400 kg/ha): 8 (8 - Approaching complete kill) | HORVW rating [2, 16]: 4 (4 - Injury) | HORVW rating [2, 17]: 4 (4 - Injury) | HORVW rating [2, 18]: 5 (5 - Definite injury) | HORVW rating [2, 19]: 4 (4 - Injury) | HORVW rating [2, 20]: 5 (5 - Definite injury) | HORVW rating [2, 21]: 5 (5 - Definite injury) | HORVW rating [2, 22]: 6 (6 - Herbicidal effect) | HORVW rating [2, 23]: 7 (7 - Good herbicidal effect) | STEME rating ([3]; 0.0125 kg/ha): 9 (9 - Complete kill) | STEME rating ([3]; 0.025 kg/ha): 9 (9 - Complete kill) | STEME rating ([3]; 0.100 kg/ha): 9 (9 - Complete kill) | STEME rating ([3]; 0.400 kg/ha): 9 (9 - Complete kill) | VERPE rating ([4]; 0.0125 kg/ha): 8 (8 - Approaching complete kill) | VERPE rating ([4]; 0.025 kg/ha): 9 (9 - Complete kill) | VERPE rating ([4]; 0.100 kg/ha): 9 (9 - Complete kill) | VERPE rating ([4]; 0.400 kg/ha): 9 (9 - Complete kill) | ORYSA rating [5, 16]: 1 (1 - Trace effect) | ORYSA rating [5, 17]: 2 (2 - Slight effect) | ORYSA rating [5, 18]: 1 (1 - Trace effect) | ORYSA rating [5, 19]: 2 (2 - Slight effect) | ORYSA rating [5, 20]: 3 (3 - Moderate effect) | ORYSA rating [5, 21]: 4 (4 - Injury) | ORYSA rating [5, 22]: 4 (4 - Injury) | ORYSA rating [5, 23]: 5 (5 - Definite injury) | crop tolerance [6]: well tolerated | overall levels of weed control [7]: good overall levels of weed control | ZEAMX rating [8, 16]: 1 (1 - Trace effect) | ZEAMX rating [8, 17]: 1 (1 - Trace effect) | ZEAMX rating [8, 18]: 2 (2 - Slight effect) | ZEAMX rating [8, 19]: 2 (2 - Slight effect) | ZEAMX rating [8, 20]: 3 (3 - Moderate effect) | ZEAMX rating [8, 21]: 3 (3 - Moderate effect) | IPOHE rating ([9]; 0.025 kg/ha): 3 (3 - Moderate effect) | IPOHE rating ([9]; 0.100 kg/ha): 9 (9 - Complete kill) | IPOHE rating ([9]; 0.400 kg/ha): 9 (9 - Complete kill) | ALOMY rating ([10]; 0.0125 kg/ha): 7 (7 - Good herbicidal effect) | ALOMY rating ([10]; 0.025 kg/ha): 8 (8 - Approaching complete kill) | ALOMY rating ([10]; 0.100 kg/ha): 9 (9 - Complete kill) | ALOMY rating ([10]; 0.400 kg/ha): 9 (9 - Complete kill) | ABUTH rating ([11]; 0.0125 kg/ha): 6 (6 - Herbicidal effect) | ABUTH rating ([11]; 0.025 kg/ha): 9 (9 - Complete kill) | ABUTH rating ([11]; 0.100 kg/ha): 9 (9 - Complete kill) | ABUTH rating ([11]; 0.400 kg/ha): 9 (9 - Complete kill) | SETVI rating ([12]; 0.0125 kg/ha): 7 (7 - Good herbicidal effect) | SETVI rating ([12]; 0.025 kg/ha): 7 (7 - Good herbicidal effect) | SETVI rating ([12]; 0.100 kg/ha): 9 (9 - Complete kill) | SETVI rating ([12]; 0.400 kg/ha): 9 (9 - Complete kill) | MATIN rating ([13]; 0.0125 kg/ha): 8 (8 - Approaching complete kill) | MATIN rating ([13]; 0.025 kg/ha): 8 (8 - Approaching complete kill) | MATIN rating ([13]; 0.100 kg/ha): 9 (9 - Complete kill) | MATIN rating ([13]; 0.400 kg/ha): 9 (9 - Complete kill) | GLXMA rating [14, 16]: 2 (2 - Slight effect) | GLXMA rating [14, 17]: 4 (4 - Injury) | GLXMA rating [14, 18]: 2 (2 - Slight effect) | GLXMA rating [14, 19]: 4 (4 - Injury) | GLXMA rating [14, 20]: 3 (3 - Moderate effect) | GLXMA rating [14, 21]: 5 (5 - Definite injury) | GLXMA rating [14, 22]: 4 (4 - Injury) | GLXMA rating [14, 23]: 5 (5 - Definite injury) | TRZAW rating [15, 16]: 3 (3 - Moderate effect) | TRZAW rating [15, 17]: 3 (3 - Moderate effect) | TRZAW rating [15, 18]: 3 (3 - Moderate effect) | TRZAW rating [15, 19]: 3 (3 - Moderate effect) | TRZAW rating [15, 20]: 5 (5 - Definite injury) | TRZAW rating [15, 21]: 5 (5 - Definite injury) | TRZAW rating [15, 22]: 6 (6 - Herbicidal effect) | TRZAW rating [15, 23]: 6 (6 - Herbicidal effect)
